# Biological target: tryptase
# Test: In vitro tryptase inhibition assay (hydrolysis of tosyl-Gly-Pro-Lys-p-nitroanilide)
# Type: biochemical, human
# Conditions: tosyl-Gly-Pro-Lys-p-nitroanilide 0.5 mM, pH 8.2, 1 h pre-incubation, room temperature
# Description: The compounds to be assayed (approximately 1 mg) were dissolved in 200 μL dimethylsulfoxide (DMSO) and diluted 1:10 into buffer containing 50 millimolar (mM) Tris-HCl (pH 8.2), 100 mM sodium chloride, and 0.05% polyoxyethylenesorbitan monolaurate (Tween-20®, available from Sigma, St. Louis, Mo.). Seven additional threefold dilutions were made from the initial dilution into the same buffer supplemented with 10% DMSO. Aliquots (50 microliters, μL) from each of the eight dilutions in the series were transferred to individual wells in a 96-well U-bottom microtiter plate. 25 μL of a stock solution of tryptase was added to each well and the samples were mixed and incubated for one hour at room temperature (tryptase was purified from human lung and skin tissue preparations, HMC-1 (human mast cell line) and also obtained from commercial sources (ICN Biomedicals, Irvine, Calif.; Athens Research & Technology, Athens, Ga.)). […] The tryptase solution was prepared by placing 60 μg/mL of tryptase into solution with 10 mM MES (2-[N-Morpholino]ethane sulfonic acid) containing 2 mM CaCl2, 20% glycerol and 50 μg/mL heparin. The enzyme reaction was initiated with the addition of the synthetic tripeptide substrate, tosyl-Gly-Pro-Lys-p-nitroanilide (available from Sigma, 25 μL; 0.5 mM final concentration).
# However, Ki ' varies with the enzyme concentration used in the enzyme assay. […] The y-intercept of a replot of IC50 (ordinate) versus tryptase concentration (abscissa) produces a value for Ki '.
# The inhibition constants (Ki ', micromolar (μM)) were determined for the compounds of the present invention.
row,SMILES,Ki [nM]
1,"N=C(N)N1CCC(CNC(=O)N2CCN(C(=O)O[C@H]3CCC[C@@H](OC(=O)N4CCN(C(=O)NCC5CCN(C(=N)N)CC5)CC4)CCC3)CC2)CC1 [Compound 27, cis-1,5-cyclooctylene bis[4-(1-amidinopiperid-4-ylmethylcarbamoyl)-1-piperazinecarboxylate]]",614
2,"N=C(N)c1ccc(CNC(=O)N2CCN(C(=O)O[C@H]3CCC[C@@H](OC(=O)N4CCN(C(=O)NCc5ccc(C(=N)N)cc5)CC4)CCC3)CC2)cc1 [Compound 28, cis-1,5-cyclooctylene bis[4-(4-amidinobenzylcarbamoyl)-1-piperazinecarboxylate}]",8.7
3,"N=C(N)Nc1ccc(CNC(=O)N2CCN(C(=O)OCC34CC5CC(C3)CC(COC(=O)N3CCN(C(=O)NCc6ccc(NC(=N)N)cc6)CC3)(C5)C4)CC2)cc1 [Compound 31, cis-1,5-tetracyclo[3.3.1.1^3,7]decylenedimethylene bis[4-(4-guanidinobenzylcarbamoyl)-1-piperazinecarboxylate]]",26.6
4,"N=C(N)c1ccc(CCNC(=O)N2CCN(C(=O)O[C@H]3CCC[C@@H](OC(=O)N4CCN(C(=O)NCCc5ccc(C(=N)N)cc5)CC4)CCC3)CC2)cc1 [Compound 33, cis-1,5-cyclooctylene bis{4-[2-(4-amidinophenyl)ethylcarbamoyl)-1-piperazinecarboxylate}]",440
5,"NCCCCCNC(=O)N1CCN(C(=O)O[C@H]2CCC[C@@H](OC(=O)N3CCN(C(=O)NCCCCCN)CC3)CCC2)CC1 [Compound 34, cis-1,5-cyclooctylene bis[4-(5-aminopentylcarbamoyl)-1-piperazinecarboxylate]]",11
6,"NCCCCCCNC(=O)N1CCN(C(=O)O[C@H]2CCC[C@@H](OC(=O)N3CCN(C(=O)NCCCCCCN)CC3)CCC2)CC1 [Compound 35, cis-1,5-cyclooctylene bis[4-(6-aminohexylcarbamoyl)-1-piperazinecarboxylate]]",1440
7,"NCCC=CCNC(=O)N1CCN(C(=O)O[C@H]2CCC[C@@H](OC(=O)N3CCN(C(=O)NCC=CCCN)CC3)CCC2)CC1 [Compound 36, cis-1,5-cyclooctylene bis[4-(5-amino-2-pentenylcarbamoyl)-1-piperazinecarboxylate]]",125
8,"NC[C@H]1CC[C@H](NC(=O)OC2CCN(C(=O)O[C@H]3CCC[C@@H](OC(=O)N4CCC(OC(=O)N[C@H]5CC[C@H](CN)CC5)CC4)CCC3)CC2)CC1 [Compound 39, cis-1,5-cyclooctylene bis[4-(trans-4-aminomethylcyclohexylaminoformyloxy)-1-piperidinecarboxylate]]",858
9,"N=C(N)c1ccc(C(=O)NCC2CCN(C(=O)O[C@H]3CCC[C@@H](OC(=O)N4CCC(CNC(=O)c5ccc(C(=N)N)cc5)CC4)CCC3)CC2)cc1 [Compound 44, cis-1,5-cyclooctylene bis[4-(4-amidinobenzoylaminomethyl)-1-piperidinecarboxylate]]",8
10,"N=C(N)Nc1ccc(CNC(=O)N2CCN(C(=O)C3CCCCC3C(=O)N3CCN(C(=O)NCc4ccc(NC(=N)N)cc4)CC3)CC2)cc1 (stereo not shown) [Compound 46, 1,2-cyclohexylene bis[4-(4-guanidinobenzylcarbamoyl)-1-piperazinecarboxadehyde]]",772
11,"N=C(N)Nc1ccc(CNC(=O)N2CCN(C(=O)OCC34CCC(COC(=O)N5CCN(C(=O)NCc6ccc(NC(=N)N)cc6)CC5)(CC3)CC4)CC2)cc1 [Compound 47, 1,4-bicyclo[2.2.2]octylenedimethylene bis[4-(4-guanidinobenzylcarbamoyl)-1-piperazinecarboxylate]]",0.42

# Continued by falling Ki, values first:
row,Ki [nM],SMILES
1,2300,"N=C(N)Nc1ccc(C(=O)NCC2CCN(C(=O)O[C@H]3CCC[C@@H](OC(=O)N4CCC(CNC(=O)c5ccc(NC(=N)N)cc5)CC4)CCC3)CC2)cc1 [Compound 48, cis-1,5-cyclooctylene bis[4-(4-guanidinophenylcarbonylaminomethyl)-1-piperidinecarboxylate]]"
2,1450,"NC[C@H]1CC[C@H](CNC(=O)OC2CCN(C(=O)O[C@H]3CCC[C@@H](OC(=O)N4CCC(OC(=O)NC[C@H]5CC[C@H](CN)CC5)CC4)CCC3)CC2)CC1 [Compound 43, cis-1,5-cyclooctylene bis[4-(trans-4-aminomethylcyclohexylmethylaminoformyloxy)-1-piperidinecarboxylate]]"
3,1390,"CN(CCOC(=O)N[C@H]1CC[C@H](CN)CC1)C(=O)O[C@H]1CCC[C@@H](OC(=O)N(C)CCOC(=O)N[C@H]2CC[C@H](CN)CC2)CCC1 [Compound 40, cis-1,5-cyclooctylene bis[N-2-(trans-4-aminomethylcyclohexylaminoformyloxy)ethyl-N-methylaminocarboxylate]]"
4,1100,"CN(CCOC(=O)NC[C@H]1CC[C@H](CN)CC1)C(=O)O[C@H]1CCC[C@@H](OC(=O)N(C)CCOC(=O)NC[C@H]2CC[C@H](CN)CC2)CCC1 [Compound 41, cis-1,5-cyclooctylene bis[N-2-(trans-4-aminomethylcyclohexylmethylaminoformyloxy)ethyl-N-methylaminocarboxylate}]"
5,750,"NCCOCCNC(=O)N1CCN(C(=O)O[C@H]2CCC[C@@H](OC(=O)N3CCN(C(=O)NCCOCCN)CC3)CCC2)CC1 [Compound 38, cis-1,5-cyclooctylene bis{4-[2-(2-aminoethoxy)ethylcarbamoyl]-1-piperazinecarboxylate}]"
6,508,"NCCCCNC(=O)N1CCN(C(=O)O[C@H]2CCC[C@@H](OC(=O)N3CCN(C(=O)NCCCCN)CC3)CCC2)CC1 [Compound 37, cis-1,5-cyclooctylene bis[4-(4-aminobutylcarbamoyl)-1-piperazinecarboxylate]]"
7,332,"NCC1CCN(C(=O)NCC2CCN(C(=O)O[C@H]3CCC[C@@H](OC(=O)N4CCC(CNC(=O)N5CCC(CN)CC5)CC4)CCC3)CC2)CC1 [Compound 26, cis-1,5-cyclooctylene bis{4-[4-(aminomethyl)piperid-1-ylcarbonylaminomethyl)-1-piperidinecarboxylate}]"
8,114,"N=C(N)C1CCN(C(=O)NCC2CCN(C(=O)O[C@H]3CCC[C@@H](OC(=O)N4CCC(CNC(=O)N5CCC(C(=N)N)CC5)CC4)CCC3)CC2)CC1 [Compound 45, cis-1,5-cyclooctylene bis[4-(4-amidinopiperid-1-ylcarbonylaminomethyl)-1-piperidinecarboxylate]]"
9,64,"NC[C@H]1CC[C@H](CNC(=O)N2CCN(C(=O)OC[C@H]3CC[C@H](COC(=O)N4CCN(C(=O)NC[C@H]5CC[C@H](CN)CC5)CC4)CC3)CC2)CC1 [Compound 42, trans-1,4-cyclohexylenedimethylene bis[4-(trans-4-aminomethylcyclohexylmethylcarbamoyl)-1-piperazinecarboxylate]]"
10,8,"N=C(N)Nc1ccc(CNC(=O)N2CCN(C(=O)OCC3C4C=CC(CC4)C3COC(=O)N3CCN(C(=O)NCc4ccc(NC(=N)N)cc4)CC3)CC2)cc1 (stereo not drawn) [Compound 30, trans-2,3-bicyclo[2.2.2]oct-5-enylenedimethylene bis[4-(4-guanidinobenzylcarbamoyl)-1-piperazinecarboxylate]]"
11,3.8,"N=C(N)Nc1ccc(CNC(=O)N2CCN(C(=O)OC3COC4C(OC(=O)N5CCN(C(=O)NCc6ccc(NC(=N)N)cc6)CC5)COC34)CC2)cc1 (stereo not drawn) [Compound 29, cis-2,6-(4,8-dioxabicyclo[3.3.0]octylene)bis[4-(4-guanidinobenzylcarbamoyl)-1-piperazinecarboxylate]]"

# Reference: patent US6022969A, “Compositions and methods for treating mast-cell mediated conditions” (AXYS Pharmaceuticals, Inc., priority 1995, dated 2000)
